Patent publication EP4745134A1 (Jiangsu Yahong Meditech Co., Ltd., priority 2023, dated 2025)

How the values were obtained:
PRMT5-MTA = PRMT5-MTA (Homo sapiens, UniProt O14744); experiment: Enzymatic inhibitory activity against PRMT5-MTA (AlphaScreen); type: biochemical; conditions: read-out: IC50
Method in brief: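 PRMT5/[…] (1 nM) was preincubated for 30 min at room temperature with 1 µM […] and 2.5 µM SAM, then exposed to compound (10-point, 3-fold from 1000 nM) for 15 min at 23 °C. Histone H4 substrate (5 nM) was added and reacted for 45 min at 23 °C. Symmetric dimethyl-R3 H4 was detected by AlphaScreen and IC50 calculated.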

HCT116-WT cells = experiment: Inhibitory activity against cell proliferation (CellTiter Glo, 6 days), HCT116-WT; type: cell-based; conditions: 144 h, HCT116-WT cells, 6 days, CellTiter Glo; read-out: HCT116-WT IC50
Method in brief: (§1)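 250 cells/well, McCoy's 5A + 10% FBS, o/n 37°C 5% CO2; cpd 8-pt 4-fold from 10000 nM, 6 d; CTG lum on day 7; IC50 vs DMSO.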

HCT116 MTAP KO cells = experiment: Inhibitory activity against cell proliferation (CellTiter Glo, 6 days), HCT116 MTAP KO; type: cell-based; conditions: for IC50: Homo sapiens, HCT-116, 144 h, HCT116 MTAP KO cells, 6 days, CellTiter Glo, read-out: HCT116 MTAP KO IC50; for Selectivity HCT 116-WT/ HCT116 MTAP KO: ratio of IC50 HCT116-WT / HCT116 MTAP KO
Method in brief: as §1

PRMT5-MTA, sequence (O14744 whole entry): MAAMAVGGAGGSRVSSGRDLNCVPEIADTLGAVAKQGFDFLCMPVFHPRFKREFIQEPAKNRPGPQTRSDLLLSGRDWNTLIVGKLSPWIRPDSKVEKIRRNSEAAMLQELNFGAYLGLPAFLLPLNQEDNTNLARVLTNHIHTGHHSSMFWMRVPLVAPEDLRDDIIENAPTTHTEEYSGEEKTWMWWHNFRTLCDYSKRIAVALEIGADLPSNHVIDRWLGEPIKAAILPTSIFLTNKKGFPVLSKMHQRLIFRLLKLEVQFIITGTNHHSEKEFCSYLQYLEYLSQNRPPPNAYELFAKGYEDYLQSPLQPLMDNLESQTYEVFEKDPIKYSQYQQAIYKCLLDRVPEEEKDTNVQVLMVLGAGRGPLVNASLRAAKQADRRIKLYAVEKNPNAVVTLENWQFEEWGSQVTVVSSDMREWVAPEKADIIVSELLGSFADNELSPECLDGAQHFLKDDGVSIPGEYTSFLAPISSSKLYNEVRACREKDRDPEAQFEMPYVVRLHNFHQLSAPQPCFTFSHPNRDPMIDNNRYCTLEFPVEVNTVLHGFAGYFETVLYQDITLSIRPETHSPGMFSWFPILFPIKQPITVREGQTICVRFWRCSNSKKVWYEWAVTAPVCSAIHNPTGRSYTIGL
PRMT5-MTA, sequence (Q9BQA1 whole entry partner): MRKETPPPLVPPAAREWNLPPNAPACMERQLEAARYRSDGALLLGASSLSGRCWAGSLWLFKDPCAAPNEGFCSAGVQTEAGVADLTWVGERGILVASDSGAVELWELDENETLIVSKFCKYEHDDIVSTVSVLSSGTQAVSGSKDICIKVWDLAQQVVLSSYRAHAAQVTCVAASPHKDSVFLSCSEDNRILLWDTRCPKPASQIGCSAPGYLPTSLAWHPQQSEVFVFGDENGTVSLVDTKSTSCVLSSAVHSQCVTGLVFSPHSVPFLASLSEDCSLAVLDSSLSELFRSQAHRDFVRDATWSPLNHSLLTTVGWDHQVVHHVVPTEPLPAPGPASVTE

Row | SMILES | IC50 (PRMT5-MTA) | IC50 (HCT116-WT cells) | IC50 (HCT116 MTAP KO cells) | Selectivity HCT 116-WT/ HCT116 MTAP KO (HCT116 MTAP KO cells)
1 | COC1CN(C(=O)c2cc3c(cc2Cl)nc(N)c2cnn(C)c23)N(c2ncc(F)cc2F)C1 (stereo not shown) [Example 442, (4-amino-7-chloro-1-methyl-1H-pyrazolo [4,3-c]quinolin-8-yl)(2-(3,5-2 fluoropyridin-2-yl)-4-methoxypyrazolidin-1-yl)methanone] | 4.6 nM | 634 nM | 42 nM | 15.10
2 | COC1CN(C(=O)c2cc3c(cc2C)nc(N)c2cnn(C)c23)N(c2ncc(F)cc2F)C1 (stereo not shown) [Example 443, (4-amino-1,7-dimethyl-1H-pyrazolo[4,3-c]quinolin-8-yl)(2-(3,5- ? fluoropyridin-2-yl)-4-methoxypyrazolidin-1-yl)methanone] | 5 nM | 468 nM | 26 nM | 18.00
3 | COC1CN(C(=O)c2cc3c(cc2Cl)nc(N)c2cnn(C)c23)N(c2ncccc2F)C1 (stereo not shown) [Example 444, (4-amino-7-chloro-1-methyl-1H-pyrazolo [4,3-c]quinolin-8-yl)(2-(3-fluoropyridin-2-yl)-4-methoxypyrazolidin-1-yl)methanone] | 3.7 nM | 1230 nM | 80 nM | 15.43
4 | COC1CN(C(=O)c2cc3c(cc2C)nc(N)c2cnn(C)c23)N(c2cc(F)ccc2F)C1 (stereo not shown) [Example 445, (4-amino-1,7-dimethyl-1H-pyrazolo[4,3-c]quinolin-8-yl)(2-(2,5-difluorophenyl)-4-methoxypyrazolidin-1-yl)methanone] | 6.4 nM | 548 nM | 22 nM | 24.91
5 | COC1CN(C(=O)c2cc3c(cc2Cl)nc(N)c2cnn(C)c23)N(c2cccc(F)c2F)C1 (stereo not shown) [Example 447, (4-amino-7-chloro-1-methyl-1H-pyrazolo [4,3-c]quinolin-8-yl)(2-(2,3-difluorophenyl)-4-methoxypyrazolidin-1-yl)methanone] | 6.8 nM | 315 nM | 24 nM | 13.13
6 | COC1CN(C(=O)c2cc3c(cc2Cl)nc(N)c2cnn(C)c23)N(c2cccc(F)n2)C1 (stereo not shown) [Example 448, (4-amino-7-chloro-1-methyl-1H-pyrazolo [4,3-c]quinolin-8-yl)(2-(6-fluoropyridin-2-yl)-4-methoxypyrazolidin-1-yl)methanone] | 5.1 nM | 586 nM | 27 nM | 21.70
7 | COC1CN(C(=O)c2cc3c(cc2C)nc(N)c2cnn(C)c23)N(c2cccc(F)n2)C1 (stereo not shown) [Example 449, (4-amino-1,7-dimethyl-1H-pyrazolo[4,3-c]quinolin-8-yl)(2-(6-fluoropyridin-2-yl) -4-methoxypyrazolidin-1-yl)methanone] | 5.2 nM | 1470 nM | 63 nM | 23.37
8 | Cc1cc2nc(N)c3cnn(C)c3c2cc1C(=O)N1CC(F)CN1c1ncccc1F (stereo not shown) [Example 450, (4-amino-1,7-dimethyl-1H-pyrazolo[4,3-c]quinolin-8-yl)(4-fluoro-2-(3-fluoropyridin-2-yl)pyrazolidin-1-yl)methanone] | 3.8 nM | 1220 nM | 20 nM | 61.20
9 | Cn1ncc2c(N)nc3cc(Cl)c(C(=O)N4CC(OCC(F)(F)F)CN4c4ncccc4F)cc3c21 (stereo not shown) [Example 451, (4-amino-7-chloro-1-methyl-1H-pyrazolo[4,3-c]quinolin-8-yl)(2-(3-fluoropyridin-2-yl)-4-(2,2,2-trifluoroethoxy)pyrazolidin-1-yl)methanone] | 7 nM | 1010 nM | 40 nM | 25.30
10 | Cc1cc2nc(N)c3cnn(C)c3c2cc1C(=O)N1CC(OCC(F)(F)F)CN1c1ncccc1F (stereo not shown) [Example 452, (4-amino-1,7-dimethyl-1H-pyrazolo[4,3-c]quinolin-8-yl)(2-(3-fluoropyridin-2-yl)-4-(2,2,2-trifluoroethoxy)pyrazolidin-1-yl) methanone] | 7.3 nM | 1420 nM | 45 nM | 31.67
11 | CCOC1CN(C(=O)c2cc3c(cc2C)nc(N)c2cnn(C)c23)N(c2ncccc2F)C1 (stereo not shown) [Example 453, (4-amino-1,7-dimethyl-1H-pyrazolo[4,3-c]quinolin-8-yl)(4-ethoxy-2-(3-fluoropyridin-2-yl)pyrazolidin-1-yl)methanone] | 5.2 nM | 523 nM | 23 nM | 22.74
12 | [2H]C([2H])([2H])OC1CN(C(=O)c2cc3c(cc2C)nc(N)c2cnn(C)c23)N(c2ncccc2F)C1 (stereo not shown) [Example 454, (4-amino-1,7-dimethyl-1H-pyrazolo[4,3-c]quinolin-8-yl)(2-(3-fluoropyridin-2-yl)-4-(methoxy-D3)pyrazolidin-1-yl)methanone] | 5.9 nM | 752 nM | 36 nM | 20.89
13 | Cc1cc2nc(N)c3cnn(C)c3c2cc1C(=O)N1CC(F)(F)CN1c1ncccc1F [Example 455, (4-amino-1,7-dimethyl-1H-pyrazolo[4,3-c]quinolin-8-yl)(4,4-difluoro-2-(3-fluoropyridin-2-yl)pyrazolin-1-yl)methanone] | 10.1 nM | 305 nM | 9.5 nM | 32.11
14 | Cn1ncc2c(N)nc3cc(Cl)c(C(=O)N4CC(F)(F)CN4c4ncc(Br)cc4F)cc3c21 [Example 456, (4-amino-7-chloro-1-methyl-1H-pyrazolo [4,3-c]quinolin-8-yl)(2-(5-bromo-3-fluor opyridin-2-yl)-4,4-difluoropyrazolidin-1-yl)methanone] | 7 nM | 1930 nM | 28 nM | 68.89
15 | Cn1ncc2c(N)nc3cc(Cl)c(C(=O)N4CC(F)(F)CN4c4ccccc4F)cc3c21 [Example 457, (4-amino-7-chloro-1-methyl-1H-pyrazolo [4,3-c]quinolin-8-yl)(4,4-difluoro-2-(2-fluorophenyl)pyrazolidin-1-yl)methanone] | 7.5 nM | 123 nM | 12 nM | 10.25
16 | Cn1ncc2c(N)nc3cc(Cl)c(C(=O)N4CC(F)(F)CN4c4ncc(F)cc4F)cc3c21 [Example 458, (4-amino-7-chloro-1-methyl-1H-pyrazolo [4,3-c]quinolin-8-yl)(2-(3,5-difluoropyridin-2-yl)-4,4-difluoropyrazolidin-1-yl)met hanone] | 5.1 nM | 371 nM | 15 nM | 24.73
17 | Cn1ncc2c(N)nc3cc(Cl)c(C(=O)N4CC(F)(F)CN4c4ncccc4F)cc3c21 [Example 459, (4-amino-7-chloro-1-methyl-1H-pyrazolo [4,3-c]quinolin-8-yl)(4,4-difluoro-2-(3-fluoropyridin-2-yl)pyrazolidin-1-yl)methanone] | 4.7 nM | 408 nM | 30 nM | 13.60
18 | Cn1ncc2c(N)nc3cc(Cl)c(C(=O)N4CC(F)(F)CN4c4ncc(Cl)cc4F)cc3c21 [Example 460, (4-amino-7-chloro-1-methyl-1H-pyrazolo [4,3-c]quinolin-8-yl)(2-(5-chloro-3-fluoropyridin-2-yl)-4,4-difluoropyrazolidin-1-yl)methanone] | 8.2 nM | 479 nM | 18 nM | 26.61
19 | Cn1ncc2c(N)nc3cc(Cl)c(C(=O)N4CC(F)(F)CN4c4cccc(F)c4F)cc3c21 [Example 461, (4-amino-7-chloro-1-methyl-1H-pyrazolo [4,3-c]quinolin-8-yl)(2-(2,3-difluorophenyl)-4,4-difluoropyrazolidin-1-yl)methanone] | 6.8 nM | 295 nM | 15 nM | 19.67
20 | Cn1ncc2c(N)nc3cc(Cl)c(C(=O)N4CC(F)(F)CN4c4cccc(F)n4)cc3c21 [Example 462, (4-amino-7-chloro-1-methyl-1H-pyrazolo [4,3-c]quinolin-8-yl)(4,4-difluoro-2-(6-fluoropyridin-2-yl)pyrazolidin-1-yl)methanone] | 6 nM | 484 nM | 30 nM | 16.13
21 | Cc1cc2nc(N)c3cnn(C)c3c2cc1C(=O)N1CCCN1c1ccc(C2CC2)cn1 [Example 468, (4-amino-1,7-dimethyl-1H-pyrazolo[4,3-c]quinolin-8-yl)(2-(5-cyclopropylpyridin-2-yl)pyrazolidin-1-yl)methanone] | 3.2 nM | 4340 nM | 180 nM | 24.09
22 | Cc1cc2nc(N)c3cnn(C)c3c2cc1C(=O)N1CC(C)CN1c1ncc(-c2cnn(C(F)(F)F)c2)cc1F (stereo not shown) [Example 472, (4-amino-1,7-dimethyl-1H-pyrazolo[4,3-c]quinolin-8-y1)(2-(3-fluoro-5-(1-(trifluor omethyl)-1H-pyrazol-4-yl)pyridin-2-yl)-4-methylpyrazolidin-1-yl)methanone] | 4.6 nM | 971 nM | 30 nM | 32.37
